In article PMC2748089, “Bactericidal activities of the cationic steroid CSA-13 and the cathelicidin peptide LL-37 against Helicobacter pylori in simulated gastric juice” (BMC Microbiology, 2009):
Like-named read-outs stand apart in the source and are kept apart here. Ends that are not written are not given here.

How the values were obtained:
H. pylori [1] = assay: MIC of conventional antibiotics against H. pylori on Muller-Hinton agar; type: cell-based, Helicobacter pylori; conditions: for MIC: Helicobacter pylori; for Susceptibility classification by MIC: all H. pylori isolates, resistant when MIC above 4 μg/ml for AMX, 16 μg/ml for TET
[2] = system: Human gastric adenocarcinoma cells (ATCC; CRL-1739); conditions: 10 μg/ml, 1 hour; phase-contrast microscopy
Description: (§1) Figure 5 Evaluation of cell toxicity. Hemoglobin and LDH release from human red blood cells and human gastric adenocarcinoma cells (panel A and B respectively) after addition of LL-37 (circles), WLBU2 (diamonds), and CSA-13 (triangles), followed by incubation for 1 h at 37°C. Data shown are means ± SD of three experiments. Morphology of human gastric adenocarcinoma cells before (control) and after LL-37, WLBU2 and CSA-13 treatment was evaluated by phase-contrast microscopy (panel C). Data from one representative experiment are shown.
Human gastric adenocarcinoma cells (ATCC; CRL-1739) were maintained in DMEM (BioWhittaker) culture supplemented with 10% heat-inactivated fetal bovine serum (Hyclone) at 37°C and 5% CO2. For LDH release assay and microscope evaluation cells were plated in 24 well plates and grown to confluence. In all experiments, the medium was changed to serum-free media ~12 h prior to cell treatment with LL-37, WLBU2 and CSA-13 (0-200 μg/ml) in individual wells, for 1 hour. Cell culture medium was then collected, centrifuged (10 mins, 5000 rpm, RT) and subjected to LDH evaluation (LDH-cytotoxicity Assay Kit; BioVision Inc.)

H. pylori [3] = conditions: for Change of MBC on addition of 2 mM MgCl2: HEPES buffer with 2 mM MgCl2 versus HEPES, data not shown
pepsin = pepsin (Sus scrofa, UniProt P00791); assay: LC-MS analytical characterization after incubation with pepsin at low pH; conditions: 3 h incubation with pepsin 0.5 mg/ml at pH ~1.5, 37°C; LC-MS (C18, ESI positive); data from one experiment
Sequence of pepsin (P00791 60-385): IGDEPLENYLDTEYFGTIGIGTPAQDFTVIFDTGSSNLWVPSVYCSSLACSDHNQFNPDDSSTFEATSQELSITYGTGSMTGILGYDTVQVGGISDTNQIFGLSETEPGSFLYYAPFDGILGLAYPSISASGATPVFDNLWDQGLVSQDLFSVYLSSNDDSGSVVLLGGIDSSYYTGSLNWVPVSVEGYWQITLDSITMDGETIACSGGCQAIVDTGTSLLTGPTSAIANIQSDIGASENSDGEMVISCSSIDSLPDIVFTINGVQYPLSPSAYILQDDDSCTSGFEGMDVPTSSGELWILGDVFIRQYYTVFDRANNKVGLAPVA
Description: The total ion chromatogram (TIC) is presented for each sample condition with an inset mass-to-charge (m/z) spectra showing intensity for the boxed TIC peaks. The molecular weight of intact LL-37 is 4494, which can be observed with multiple charges (m/z = 4 MW = 1124, m/z = 5 MW = 900, etc) in positive ion mode. The molecular weight of CSA13 is 678, which can be observed directly and with multiple charges. Data from one experiment are shown.
Analytical characterization was performed on the CSA-13 and LL-37 suspensions after 3H incubation with pepsin (0.5 mg/ml) at low pH (~1,5) at 37°C, using the Shimadzu (Columbia, MD) instrument (the LC-MS system consisted of a LC-20AB solvent delivery system and SIL-20A auto-sampler coupled to dual wavelength UV-Vis detector and a LCMS 2010EV single quadrupole mass spectrometer), coupled to a Shimadzu Premier C18 column (150 mm × 4.6 mm i.d., 5 μm particle size). The mobile phase flow rate was 1 ml/min with a starting ratio of 90% mobile phase A (water) and 10% mobile phase B (acetonitrile) both with 0.1% (v/v) formic acid. The analytical method consisted of the following steps: (i) sample injection and holding at 10% B for 5 min, (ii) linear gradient from 10% to 90% B over 15 minutes, (iii) holding at 90% B for 5 minutes, (iv) isocratic step to 10% B and holding for 5 minutes prior to the next sample injection. […]

Escherichia coli MG1655 = assay: Bacteria killing assay after pre-incubation in simulated gastric juice, or with mucin or bile; conditions: E. coli MG1655, CFU count; for Antibacterial activity after pre-incubation at pH ~1.5 in the presence of pepsin: 3 h pre-incubation at 37°C in simulated gastric juice pH ~1.5 with pepsin 0.5 mg/ml; for Antibacterial activity after pre-incubation at pH ~1.5 in the presence of pepsin / Antibacterial activity after pre-incubation at pH ~1.5: versus PBS pH 7.4, pH adjusted to 7.4 before 1 h killing assay, means of three to four experiments; for Antibacterial activity after pre-incubation at pH ~1.5: 3 h pre-incubation at 37°C in simulated gastric juice pH ~1.5 without pepsin
human red blood cells = system: human red blood cells
Description: as §1
The hemolytic activity of LL-37, WLBU-2 and CSA-13 (0-200 μg/ml), against human red blood cells (RBC) was tested using erythrocytes suspended in PBS. RBC prepared from fresh blood (Hematocrit ~5%) were incubated for 1 h at 37°C after addition of test molecules. Relative hemoglobin concentration in supernatants after centrifugation at 2000 × g was monitored by measuring the absorbance at 540 nm. 100% hemolysis was taken from samples in which 2% Triton X-100 was added.

[4] = system: Human gastric adenocarcinoma cells (ATCC; CRL-1739); assay: LDH release from gastric adenocarcinoma cells; type: cell-based; conditions: bactericidal concentrations against H. pylori and E. coli MG1655 in saline and nutrient containing buffer
From the text: Figure 5 Evaluation of cell toxicity. […] Data shown are means ± SD of three experiments. […] Data from one representative experiment are shown.

drug-resistant bacteria = conditions: previous susceptibility study; cited from earlier work
[5] = 96 h, H. pylori clinical strain 1, Muller-Hinton agar with 5% sheep blood, 4 days at 35°C, microaerophilic, read-out: MIC
[6] = 96 h, H. pylori clinical strain 2, Muller-Hinton agar with 5% sheep blood, 4 days at 35°C, microaerophilic, read-out: MIC
[7] = 96 h, H. pylori clinical strain 3, Muller-Hinton agar with 5% sheep blood, 4 days at 35°C, microaerophilic, read-out: MIC
[8] = 96 h, H. pylori clinical strain 4, Muller-Hinton agar with 5% sheep blood, 4 days at 35°C, microaerophilic, read-out: MIC
[9] = 96 h, H. pylori clinical strain 5, Muller-Hinton agar with 5% sheep blood, 4 days at 35°C, microaerophilic, read-out: MIC
[10] = 96 h, H. pylori clinical strain 6, Muller-Hinton agar with 5% sheep blood, 4 days at 35°C, microaerophilic, read-out: MIC
[11] = 96 h, H. pylori clinical strain 7, Muller-Hinton agar with 5% sheep blood, 4 days at 35°C, microaerophilic, read-out: MIC
[12] = H. pylori clinical strains 5, 6, 7, resistant when MIC above 1 μg/ml for CLR, 16 μg/ml for Metronidazole
[13] = HEPES buffer, 6 hours incubation at 37°C, inoculum 10^8 CFU/ml, all isolated strains of H. pylori

## CC1(C)S[C@@H]2[C@H](NC(=O)[C@H](N)c3ccc(O)cc3)C(=O)N2[C@H]1C(=O)O [AMX, Amoxicillin]
H. pylori [1]; [5]
  MIC: 0.094 µg/mL
H. pylori [1]; [6]
  MIC: < 0.016 µg/mL
H. pylori [1]; [7]
  MIC: 0.016 µg/mL
H. pylori [1]; [8]
  MIC: 0.032 µg/mL
H. pylori [1]; [9]
  MIC: 0.25 µg/mL
H. pylori [1]; [10]
  MIC: 0.032 µg/mL
H. pylori [1]; [11]
  MIC: 0.047 µg/mL
H. pylori [1]; ATCC43504, 96 h, read-out: MIC
  MIC: 0.016 µg/mL
H. pylori [1]
  Susceptibility classification by MIC: susceptible

## Cc1ncc([N+](=O)[O-])n1CCO [Metronidazole, metronidazole]
H. pylori [1]; H. pylori clinical strain 4, resistant when MIC above 16 μg/ml for Metronidazole
  Resistance classification by MIC: resistant
H. pylori [1]; [12]
  Resistance classification by MIC: resistant
H. pylori [1]; [5]
  MIC: 0.19 µg/mL
H. pylori [1]; [6]
  MIC: 0.094 µg/mL
H. pylori [1]; [7]
  MIC: 0.5 µg/mL
H. pylori [1]; [8]
  MIC: 32 µg/mL
H. pylori [1]; [9]
  MIC: 96 µg/mL
H. pylori [1]; [10]
  MIC: 32 µg/mL
H. pylori [1]; [11]
  MIC: 48 µg/mL
H. pylori [1]; ATCC43504, 96 h, read-out: MIC
  MIC: 64 µg/mL

## CC[C@H](C)[C@H](NC(=O)[C@H](CCCCN)NC(=O)[C@H](CCC(=O)O)NC(=O)[C@H](CCCCN)NC(=O)[C@H](CO)NC(=O)[C@H](CCCCN)NC(=O)[C@H](CCCNC(=N)N)NC(=O)[C@H](Cc1ccccc1)NC(=O)[C@H](Cc1ccccc1)NC(=O)[C@H](CC(=O)O)NC(=O)CNC(=O)[C@H](CC(C)C)NC(=O)[C@@H](N)CC(C)C)C(=O)NCC(=O)N[C@@H](CCCCN)C(=O)N[C@@H](CCC(=O)O)C(=O)N[C@@H](Cc1ccccc1)C(=O)N[C@@H](CCCCN)C(=O)N[C@@H](CCCNC(=N)N)C(=O)N[C@H](C(=O)N[C@H](C(=O)N[C@@H](CCC(N)=O)C(=O)N[C@@H](CCCNC(=N)N)C(=O)N[C@H](C(=O)N[C@@H](CCCCN)C(=O)N[C@@H](CC(=O)O)C(=O)N[C@@H](Cc1ccccc1)C(=O)N[C@@H](CC(C)C)C(=O)N[C@@H](CCCNC(=N)N)C(=O)N[C@@H](CC(N)=O)C(=O)N[C@@H](CC(C)C)C(=O)N[C@H](C(=O)N1CCC[C@H]1C(=O)N[C@@H](CCCNC(=N)N)C(=O)N[C@H](C(=O)N[C@@H](CCC(=O)O)C(=O)N[C@@H](CO)C(=O)O)[C@@H](C)O)C(C)C)[C@@H](C)CC)C(C)C)[C@@H](C)CC [LL-37]
[2]
  Adenocarcinoma cell morphology versus control cells: no visible difference
H. pylori [3]; 6 h
  average MBC: 300 ± 232 µg/mL
H. pylori [3]; [13]
  average MBC: 8.9 ± 4.03 µg/mL
pepsin
  Stability to pepsin at low pH (mass spectrometry analysis): extensive degradation
Escherichia coli MG1655
  Antibacterial activity after pre-incubation at pH ~1.5 in the presence of pepsin: lost

## RRWVRRVRRWVRRVVRVVRRWVRR [WLBU2]
Human red blood cells; RBC in PBS, hematocrit ~5%, 0-200 μg/ml, 1 h at 37°C, absorbance at 540 nm, 100% = 2% Triton X-100, means of three experiments
  Hemoglobin release from human red blood cells: strongest hemolytic agent
[2]
  Adenocarcinoma cell morphology versus control cells: no visible difference
H. pylori [3]; H. pylori ATCC 43504
  Change of MBC on addition of 2 mM MgCl2: four fold increase
Escherichia coli MG1655
  Antibacterial activity after pre-incubation at pH ~1.5: not significantly changed

## CCCCCCCCNCCC[C@@H](C)[C@H]1CC[C@H]2[C@@H]3[C@H](OCCCN)C[C@@H]4C[C@H](OCCCN)CC[C@]4(C)[C@H]3C[C@H](OCCCN)[C@]12C [CSA-13]
Human red blood cells; bactericidal concentrations against H. pylori and E. coli MG1655 in saline and nutrient containing buffer
  Bactericidal concentrations relative to minimal hemolytic concentration: below its minimal hemolytic concentration
[4]
  Bactericidal concentrations relative to concentrations causing dysfunction of adenocarcinoma cell membranes: below concentrations causing dysfunction of adenocarcinoma cell membranes
[2]
  Adenocarcinoma cell morphology versus control cells: no visible difference
H. pylori [3]
  average MBC: 2.98 ± 3.11 µg/mL
H. pylori [3]; H. pylori ATCC 43504, 1 h pre-incubation at 37°C in simulated gastric juice pH ~1.5 with pepsin or mucin
  MBC after pre-incubation with buffer at low pH containing pepsin or mucin: nearly unchanged
H. pylori [3]; H. pylori ATCC 43504
  Change of MBC on addition of 2 mM MgCl2: four fold increase
H. pylori [3]; [13]
  average MBC: 0.31 ± 0.25 µg/mL
H. pylori [3]; nutrient-containing media, clinical isolates of H. pylori
  MBC (minimum bactericidal concentration), range over strains: 0.275 to 8.9 µg/mL
drug-resistant bacteria
  MIC50/MBC50 ratio: 1
pepsin
  Stability to pepsin at low pH (mass spectrometry analysis): not changed
Escherichia coli MG1655
  Antibacterial activity after pre-incubation at pH ~1.5 in the presence of pepsin: unchanged
  Antibacterial activity after pre-incubation at pH ~1.5: unchanged
Escherichia coli MG1655; mucin 1000 μg/ml, 1 h killing assay at 37°C
  Bactericidal activity in the presence of purified gastric mucin: less inhibited by mucin

## CC[C@H]1OC(=O)[C@H](C)[C@@H](O[C@H]2C[C@@](C)(OC)[C@@H](O)[C@H](C)O2)[C@H](C)[C@@H](O[C@@H]2O[C@H](C)C[C@H](N(C)C)[C@H]2O)[C@](C)(OC)C[C@@H](C)C(=O)[C@H](C)[C@@H](O)[C@]1(C)O [CLR, clarithromycin]
H. pylori [1]; [12]
  Resistance classification by MIC: resistant
H. pylori [1]; 96 h
  MIC: 0.125 µg/mL
H. pylori [1]; [6]
  MIC: 0.19 µg/mL
H. pylori [1]; [7]
  MIC: 0.25 µg/mL
H. pylori [1]; [8]
  MIC: 0.047 µg/mL
H. pylori [1]; [9]
  MIC: 64 µg/mL
H. pylori [1]; [10]
  MIC: 1.5 µg/mL
H. pylori [1]; [11]
  MIC: 1.5 µg/mL
H. pylori [1]; ATCC43504, 96 h, read-out: MIC
  MIC: 0.094 µg/mL

## CN(C)[C@@H]1C(O)=C(C(N)=O)C(=O)[C@@]2(O)C(O)=C3C(=O)c4c(O)cccc4[C@@](C)(O)[C@H]3C[C@@H]12 [TET, tetracycline]
H. pylori [1]
  Susceptibility classification by MIC: susceptible
